In patent publication US20190134005A1 (BioMarin Pharmaceutical Inc., priority 2016, published 2019):

target: T1, human CGT (Homo sapiens, UniProt Q16880); assay: Assay 1: CGT Enzymatic Assay (RapidFire/MS/MS, 0.01% Tween 80); format: biochemical; details: Table 1, Compounds of Formula (I) and Formula (II); CGT enzymatic assay, C6-NBD-dihydro-galactosylceramide readout; read-out: IC50
T1 sequence (Q16880 21-541): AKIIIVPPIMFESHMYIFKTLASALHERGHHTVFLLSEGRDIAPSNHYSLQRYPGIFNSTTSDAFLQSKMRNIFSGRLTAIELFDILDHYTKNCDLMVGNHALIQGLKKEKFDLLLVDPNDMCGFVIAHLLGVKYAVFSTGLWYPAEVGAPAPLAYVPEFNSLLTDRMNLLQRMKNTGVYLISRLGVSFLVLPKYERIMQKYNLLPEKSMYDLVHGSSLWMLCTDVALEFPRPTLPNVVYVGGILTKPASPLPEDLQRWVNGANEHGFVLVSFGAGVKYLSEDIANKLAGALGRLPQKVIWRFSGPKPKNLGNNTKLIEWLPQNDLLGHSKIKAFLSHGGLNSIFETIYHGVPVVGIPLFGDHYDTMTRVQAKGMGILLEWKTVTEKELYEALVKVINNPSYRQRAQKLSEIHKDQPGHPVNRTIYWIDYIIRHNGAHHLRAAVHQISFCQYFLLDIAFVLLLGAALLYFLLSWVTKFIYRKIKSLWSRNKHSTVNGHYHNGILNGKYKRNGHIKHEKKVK

Structure (SMILES) | IC50
N#Cc1ccc(N2C(=O)N(c3ccc(Cl)cc3)C(O)(c3cccc(OC(F)(F)F)c3)C23COC3)cc1 (centres unmarked) [Compound 276, 4-(7-(4-chlorophenyl)-8-hydroxy-6-oxo-8-(3-(trifluoromethoxy)phenyl)-2-oxa-5,7-diazaspiro[3.4]octan-5-yl)benzonitrile] | < 1000 nM
N#Cc1ccc(N2C(=O)N(c3ccc(Cl)cc3)C(O)(c3cccc(C#N)c3)C23CCC3)cc1 (centres unmarked) [Compound 268, 3-(7-(4-chlorophenyl)-5-(4-cyanophenyl)-8-hydroxy-6-oxo-5,7-diazaspiro[3.4]octan-8-yl)benzonitrile] | < 1000 nM
Cc1ccc(N2C(=O)N(c3ccc(C#N)cc3)C(O)(c3cccc(OC(F)(F)F)c3)C23COC3)cc1 (centres unmarked) [Example 307, 4-(8-hydroxy-6-oxo-5-(p-tolyl)-8-(3-(trifluoromethoxy)phenyl)-2-oxa-5,7-diazaspiro[3.4]octan-7-yl)benzonitrile] | < 1000 nM
CN1CC2(C1)N(c1ccc(Cl)cc1)C(=O)N(c1ccc(Cl)cc1)C2(O)c1cccc(C#N)c1 (centres unmarked) [Compound 301, 3-(5,7-bis(4-chlorophenyl)-8-hydroxy-2-methyl-6-oxo-2,5,7-triazaspiro[3.4]octan-8-yl)benzonitrile 2,2,2-trifluoroacetate] | < 1000 nM
Cc1ccc(N2C(=O)N(c3ccc(C#N)cc3)C(O)(c3cccc(C#N)c3)C2(C)C)cc1 (centres unmarked) [Example 313, 3-(3-(4-cyanophenyl)-4-hydroxy-5,5-dimethyl-2-oxo-1-(p-tolyl)imidazolidin-4-yl)benzonitrile] | < 1000 nM
Cc1ccc(N2C(=O)N(c3ccc(Cl)cc3)C(O)(c3cccc(OC(F)(F)F)c3)C23CCC3)cc1 (centres unmarked) [Example 315, 7-(4-chlorophenyl)-8-hydroxy-5-(p-tolyl)-8-(3-(trifluoromethoxy)phenyl)-5,7-diazaspiro[3.4]octan-6-one] | < 1000 nM

Now from value to compound:

IC50 | Structure (SMILES)
< 1000 nM | COC[C@]1(C)N(c2ccc(Cl)cc2)C(=O)N(c2ccc(Cl)cc2)C1(O)c1cccc(C#N)c1 (single isomer, unassigned) [Compound 297-2]
< 1000 nM | COc1ccc(N2C(=O)N(c3ccc(OC)cc3)C(O)(c3cccc(OC(F)(F)F)c3)[C@H]2C(C)C)cc1 (stereo partly drawn) [Example 329-2, (5R)-4-hydroxy-5-isopropyl-1,3-bis(4-methoxyphenyl)-4-(3-(trifluoromethoxy)phenyl)imidazolidin-2-one]

same assay, conditions: Table 1, Compounds of Formula (I) and Formula (II); CGT enzymatic assay; read-out: IC50

Structure (SMILES) | IC50
CC1N(c2ccc(Cl)cc2)C(=O)N(c2ccc(Cl)cc2)C1(O)c1cccc(C(C)(C)O)c1 (centres unmarked) [Compound 140, 1,3-bis(4-chlorophenyl)-4-hydroxy-4-(3-(2-hydroxypropan-2-yl)phenyl)-5-methylimidazolidin-2-one] | 1000 to 10000 nM
CCCC1N(c2ccc(Cl)cc2)C(=O)N(c2ccc(Cl)cc2)C1(O)c1cccc(C#N)c1 (centres unmarked) [Compound 101, 3-(1,3-bis(4-chlorophenyl)-4-hydroxy-2-oxo-5-propylimidazolidin-4-yl)benzonitrile] | < 1000 nM
CC1(C)N(c2ccc(Cl)cc2)C(=O)N(c2ccc(Cl)cc2)C1(O)c1cccnc1 (centres unmarked) [Example 189, 1,3-bis(4-chlorophenyl)-4-hydroxy-5,5-dimethyl-4-(pyridin-3-yl)imidazolidin-2-one] | < 1000 nM
O=C1N(c2ccc(Br)cc2)CC(O)(c2ccc(Cl)cc2)N1c1ccc(Br)cc1 (centres unmarked) [Example 19, 1,3-bis(4-bromophenyl)-4-(4-chlorophenyl)-4-hydroxyimidazolidin-2-one] | 10000 to 50000 nM
Cc1cc(C#N)cc(C2(O)CN(c3ccc(Cl)cc3)C(=O)N2c2ccc(Cl)cc2)c1 (centres unmarked) [Compound 102, 3-(1,3-bis(4-chlorophenyl)-4-hydroxy-2-oxoimidazolidin-4-yl)-5-methylbenzonitrile] | 1000 to 10000 nM
CC#Cc1cccc(C2(O)C(C)N(c3ccc(Cl)cc3)C(=O)N2c2ccc(Cl)cc2)c1 (centres unmarked) [Compound 103, 1,3-bis(4-chlorophenyl)-4-hydroxy-5-methyl-4-(3-(prop-1-yn-1-yl)phenyl)imidazolidin-2-one] | < 1000 nM
O=C1N(c2ccc(Br)cc2)C(=O)C(O)(c2cccs2)N1c1ccc(Br)cc1 (centres unmarked) [Example 205, 1,3-bis(4-bromophenyl)-5-hydroxy-5-(thiophen-2-yl)imidazolidine-2,4-dione] | 50000 to 100000 nM
O=c1n(-c2ccc(Br)cc2)cc(-c2ccc[nH]2)n1-c1ccc(Br)cc1 [Compound 256, 1,3-bis(4-bromophenyl)-4-(1H-pyrrol-2-yl)-1,3-dihydro-2H-imidazol-2-one] | > 50000 nM
CCC1(O)C(c2ccccc2)N(c2ccc(Br)cc2)C(=O)N1c1ccc(Br)cc1 (centres unmarked) [Example 45] | 1000 to 10000 nM
O=C1N(c2ccccc2)CC(O)(c2ccccc2)N1c1ccc(Br)cc1 (centres unmarked) [Example 20, 3-(4-bromophenyl)-4-hydroxy-1,4-diphenylimidazolidin-2-one] | > 50000 nM
Cc1ccc(C2(O)C(=O)N(c3ccc(Br)cc3)C(=O)N2c2ccc(Br)cc2)cc1 (centres unmarked) [Example 200, 1,3-bis(4-bromophenyl)-5-hydroxy-5-(p-tolyl)imidazolidine-2,4-dione] | 50000 to 100000 nM
CC1(c2ccccc2)N(c2ccc(Cl)cc2)C(=O)N(c2ccc(Cl)cc2)C1(O)c1ccccc1 (centres unmarked) [Compound 121, 1,3-bis(4-chlorophenyl)-4-hydroxy-5-methyl-4,5-diphenylimidazolidin-2-one] | 1000 to 10000 nM
CCCC1N(c2ccc(Cl)cc2)C(=O)N(c2ccc(Cl)cc2)C1(O)c1cccc(C)c1 (centres unmarked) [Compound 90, 1,3-bis(4-chlorophenyl)-4-hydroxy-5-propyl-4-(m-tolyl)imidazolidin-2-one] | < 1000 nM

The remaining lines, values ahead:

IC50 | Structure (SMILES)
< 1000 nM | CC[C@]1(C)N(c2ccc(Cl)cc2)C(=O)N(c2ccc(Cl)cc2)C1(O)c1cccc(C#N)c1 (single isomer, unassigned) [Example 185-2]
< 1000 nM | O=C1N(c2ccc(Cl)cc2)[C@H](C2CCC2)C(O)(c2cccc(OC(F)(F)F)c2)N1c1ccc(Cl)cc1 (stereo partly drawn) [Example 191-2, (5R)-1,3-bis(4-chlorophenyl)-5-cyclobutyl-4-hydroxy-4-(3-(trifluoromethoxy)phenyl)imidazolidin-2-one]
< 1000 nM | CCC[C@H]1N(c2ccc(Cl)cc2)C(=O)N(c2ccc(Cl)cc2)C1(O)c1cccc(C(F)(F)F)c1 (stereo partly drawn) [Compound 87-2, (5R)-1,3-bis(4-chlorophenyl)-4-hydroxy-5-propyl-4-(3-(trifluoromethyl)phenyl)imidazolidin-2-one]
< 1000 nM | COc1cccc(C2(O)[C@@H](C)N(c3ccc(Br)cc3)C(=O)N2c2ccc(Br)cc2)c1 (stereo partly drawn) [Compound 71-2, (5R)-1,3-bis(4-bromophenyl)-4-hydroxy-4-(3-methoxyphenyl)-5-methylimidazolidin-2-one]
< 1000 nM | CC[C@@H]1N(c2ccc(Cl)cc2)C(=O)N(c2ccc(Cl)cc2)C1(O)c1cccc(C(F)(F)F)c1 (stereo partly drawn) [Compound 80-1, (5S)-1,3-bis(4-chlorophenyl)-5-ethyl-4-hydroxy-4-(3-(trifluoromethyl)phenyl)imidazolidin-2-one]
1000 to 10000 nM | C[C@]1(c2cccc(Cl)c2)C(O)N(c2ccc(Cl)cc2)C(=O)N1c1ccc(Cl)cc1 (single isomer, unassigned) [Compound 149-1]
1000 to 10000 nM | Cc1csc(C2(O)[C@@H](C)N(c3ccc(Br)cc3)C(=O)N2c2ccc(Br)cc2)c1 (stereo partly drawn) [Compound 97-2, (5R)-1,3-bis(4-bromophenyl)-4-hydroxy-5-methyl-4-(4-methylthiophen-2-yl)imidazolidin-2-one]
< 1000 nM | CCC[C@@H]1N(c2ccc(Cl)cc2)C(=O)N(c2ccc(Cl)cc2)C1(O)c1cccc(C(F)(F)F)c1 (single isomer, unassigned) [Compound 87-1]
